Test results: patent US20160129005A1, “ADENINE DERIVATIVES HAVING IMMUNOMODULATING ANTI-INFLAMMATORY AND ANALGESIC ACTIVITY” (MEDESTEA RESEARCH & PRODUCTION S.p.A., priority 2011, published 2016)

Experiments:
male Fischer inbred rats = assay: Model of arthritis: complete Freund adjuvant paw inflammation, plantar test (Hargreaves); format: in vivo, rat
Description: […] was tested for possible antinociceptive and anti-inflammatory activity in a murine model of arthritis.
Unilateral inflammation of the posterior plantar pad of the rat (male Fischer inbred rats) was induced with a local injection of complete Freund adjuvant.
[…], 4 mg/kg, was administered intraperitoneally.
The rats were put in a transparent plastic chamber and were left to acclimatize for 5 minutes before the test.
Thermal stimulus, applied to the surface of the plantar pads of the rats, was produced by a halogen lamp (64607 OSRAM) of 8 V-50 W, through the plastic box; the diameter of the radiant beam measured about 12 mm. The time for withdrawal of the animal's right plantar pad was measured before and after injection of […].
A comparison was conducted on the anti-hyperalgesic and anti-inflammatory effect of a cortisone derivative, methylprednisolone acetate, administered intraperitoneally (5 mg/kg).

[1] = tested on: mice with the R117H CFTR(CF) mutation and wild-type (WT) mice; assay: Cystic fibrosis: intratracheal LPS in R117H CFTR and WT mice; format: in vivo, mouse
Description: For the experiments, 32 mice were used with the R117H CFTR(CF) mutation, responsible for the onset of the inflammatory disorder, and 18 wild-type (WT) mice with a genetic background of the C57BL/6 type.
The trachea was then intubated with a MicroSprayer (PennCentury), capable of vaporizing the drug as aerosol at a concentration of 25 μl of […] 300 μM or of vehicle. The mice were weighed daily.
On day 4, all the mice received the inflammatory stimulus (1 μg of LPS) together with […] or vehicle; separate experiments were conducted, inducing only the inflammatory stimulus in the mice. About 24 hours after administration of LPS, the mice were sacrificed and samples of BALF were collected, from which the cellular component was isolated, and was analysed under the microscope for characterizing its leukocyte phenotype.

male Wistar rats = assay: Carrageenan-induced acute inflammation of plantar pads; format: in vivo, rat
Description: The role of […] was investigated by inducing inflammation of the plantar pads of rats with carrageenan, a model that mimics the state of acute inflammation in humans.
Inflammation was induced in male Wistar rats by means of injection of 0.1 ml of carrageenan at 1% in sterile saline solution in the rats' right plantar pad. Peak inflammation occurs 3 hours after injection of carrageenan; at this point (t=0), the rats are treated with […] or diclofenac or indometacin (100 μM in 0.15 ml); the antinociceptive effect of the drugs was measured at 1, 3, 6, 12 and 24 hours after their administration.

[2] = tested on: diabetic C57BL/6 mice transplanted with BALB/c islets; assay: Survival of allogenic pancreatic islets in murine transplant model; format: in vivo, mouse; conditions: 9 mg/kg or 30 mg/kg i.p. daily; FIG. 24
Description: C57BL/6 mice were made diabetic by administration of streptozotocin (170 mg/kg) and, following transplant of allogenic pancreatic islets, were treated with […].
The pancreatic islets, isolated from the BALB/c mouse, were inoculated in the diabetic mouse according to the procedure described by Abde R et al. (Diabetes 51 (8): 2489-2495). The glycaemia values were measured daily for monitoring the functionality of the transplanted cells.
The significance of rejection of transplanted cells that occurred was attributed to glycaemia values above 250 mg/dl, obtained in two consecutive measurements. After the cells were implanted (day 0), the mice were treated with intraperitoneal injections of 9 mg/kg or 30 mg/kg of […] daily.
The combination of […] and Rapamycin, currently the most used of the immunosuppressive drugs, was tested on the same animal model.
Both drugs were administered 6 times (day 0, day 2, day 4, day 6, day 8, day 10); […] was administered at 2 doses.

U937 cells = assay: Production of VEGF in supernatant of U937 culture; format: cell-based, human; conditions: FIG. 2
Description: The inhibitory action of […] on the production of VEGF in the supernatant of U937 in culture was also evaluated.

DBA/1J mice = assay: Rheumatoid arthritis: type II collagen immunization; format: in vivo, mouse
Description: Rheumatoid arthritis (RA) is a chronic inflammatory disease that affects the joints in particular and is manifested by pain, stiffness and synovitis, which lead to destruction of the joint. Immunization of DBA/1J mice with type II collagen (CII) by intradermal injection, at the base of the tail, of 0.2 ml of an emulsion containing 2 mg/ml of bovine CII in complete Freund adjuvant induces T cells and autoantibodies specific to CII with clinical and histopathological signs that reproduce RA. Eighteen to twenty days after immunization, signs of inflammation appear, affecting one or more joints. At the first clinical signs of inflammation (inflammation of the digits and joints) with a score above 1.5 (Camps et al., 2005), we treated the animals with […] intraperitoneally (0.25 mg).
To establish the degree of infiltration of T cells in the arthritic lesions, sections fixed in formalin and embedded in paraffin were incubated with rabbit polyclonal anti-CD3 antibodies. After detection with peroxidase-labelled secondary antibodies, each sample was evaluated at 40× magnification and 3 immunoreactive “hot spots” were selected for counting the CD3^+ lymphocytes at 200× magnification.

mice = assay: COPD: chronic smoke exposure (6 months), lung morphometry and histology; format: in vivo, mouse; conditions: smoke 6 months, 4 mg/kg i.p. before daily exposure
Description: The activity of […] was also tested in a model of chronic exposure, which is closer to the aetiology of the human disorder. The mice were exposed to the smoke of 3 cigarettes a day or air for 5 days a week for 6 months, and were treated 30 minutes before the daily exposure with […] 4 mg/kg i.p.
At the end of the 6 months, the mice were sacrificed and a morphometric and histologic examination was conducted on the lung tissue.
The mean interalveolar distance (Lm) and mean internal surface area of the lung (ISA) were measured, being parameters that are correlated with degeneration of lung tissue and with the resultant decrease in respiratory function.

C=C(C=O)OC(C=O)n1cnc2c(N)ncnc21 (stereo not shown) [2-[1-(6-aminopurin-9-yl)-2-oxoethoxy]prop-2-enal]
time for withdrawal of the plantar pads (thermal stimulus) (male Fischer inbred rats; 4 mg/kg intraperitoneally, to levels comparable to baseline, FIG. 7): significantly increases the time for withdrawal of the plantar pads
action relative to methylprednisolone acetate (male Fischer inbred rats; IMMUFLAM 4 mg/kg i.p. vs methylprednisolone acetate 5 mg/kg i.p.): more effective action
reduction in concentrations of IL-1β, IL-6, TNFα and the murine analogue of IL-8 in BAL ([1]; CF and WT mice, FIGS. 42B and C): 56%-83%
decrease in neutrophil percentage relative to vehicle ([1]; CF mice, intratracheal LPS, 25 μl of 300 μM aerosol, p<0.001, FIG. 42A): 60%
decrease in the percentage of neutrophils ([1]; WT mice, intratracheal LPS, compared to 89% for vehicle, p<0.01): 47%
body weight ([1]; within first 24 hours, vehicle lost 4-8%, FIG. 41): no change in their body weight
macrophages infiltrating the plantar pad (immunohistochemistry) (male Wistar rats; biopsies from plantar pads): significantly reduces the presence of macrophages
effect on thermal hyperalgesia compared with diclofenac or indometacin (male Wistar rats; single dose 6 mg/kg): greater than the effect produced by diclofenac or indometacin
thermal hyperalgesia in the plantar pads (male Wistar rats; single dose 6 mg/kg, local and intravenous, for 24 hours): significantly reduces thermal hyperalgesia
rejection of transplanted islets (glycaemia above 250 mg/dl twice) [2]: no rejection up to day 100
cellular production of VEGF (U937 cells): reduced the cellular production of VEGF significantly
cartilage erosion (content of proteoglycans) (DBA/1J mice; 0.25 mg i.p., FIG. 29A): significant reduction in cartilage erosion
CD3+ lymphocytes infiltrating the joint (DBA/1J mice; 0.25 mg i.p., FIG. 29B): significant reduction in CD3+ lymphocytes
clinical score (DBA/1J mice; 0.25 mg intraperitoneally, from score above 1.5, vs carrier, FIG. 29C): significant reduction in the clinical score
ISA (mean internal surface area of the lung) (mice): 1153 ± 59 cm^2
Lm (mean interalveolar distance) (mice): 36.3 ± 1.1 μm
